The record followed here is patent publication US11660301B2, “Combination of ATR kinase inhibitors with PARP inhibitors” (Bayer Pharma Aktiengesellschaft, priority 2017, dated 2023).

Marks after values point to notes of the source that are not given here.

For one series, the system named is MDA-MB-436. In words: In vitro anti-proliferation (Cell Titre-Glo), MDA-MB-436. It counts as cell-based. The following applies: Homo sapiens; MDA-MB-436, breast; 96 hours of incubation; mono-treatment. As to the method: (§1) Tumor cells (Table 1) were propagated in a humidified 37° C. incubator in their respective growth medium supplemented 10% fetal calf serum. […] Test compounds were added to the wells using a Tecan-HP Digital Dispenser. After 96 hours of incubation cell viability was assessed with the Cell Titre-Glo Luminescent Cell Viability Assay (Promega).

In series [1] the test system is human 22Rv1 prostate cancer xenograft. In words: 22Rv1 prostate cancer xenograft model. The class given is in vivo, mice. Here is the method:
(§2) The oral and intraperitoneal application volume was 10 ml/kg. The time interval between two applications per day was 6-7 h. […] Changes in the body weight were a measure of treatment-related toxicity (>10%=critical, stop of treatment until recovery, >20%=toxic, termination). The tumor area was detected by means of an electronic caliper gauge [length (mm)×width (mm)]. In vivo anti-tumor efficacy is presented as T/C ratio (Treatment/Control) calculated with tumor areas at study end by the formula [(tumor area of treatment group at day x)−(tumor area of treatment group at day before first treatment)]/[(tumor area control group at day x)−(tumor area of control group at day before first treatment)]. […] Statistical analysis was assessed using SigmaStat software. A one-way analysis of variance was performed and differences to the control were compared by a pair-wise comparison procedure (Dunn's method).

For the next series, the system named is IGR-OV-1. In words: In vitro anti-proliferation (Cell Titre-Glo), IGR-OV-1. The following applies: Homo sapiens, IGROV-1; IGR-OV-1, ovary; 96 hours of incubation; mono-treatment. It counts as cell-based. Here is the method:
as §1

The subject of another series is NCI-H460. In words: In vitro anti-proliferation (Cell Titre-Glo), NCI-H460. The class given is cell-based. Conditions: Homo sapiens; NCI-H460, lung; 96 hours of incubation; mono-treatment. Here is the method:
as §1

In a further series the test system is HT-144. In words: In vitro anti-proliferation (Cell Titre-Glo), HT-144. It counts as cell-based. The following applies: Homo sapiens; HT-144, melanoma; 96 hours of incubation; mono-treatment. Here is the method:
as §1

For series [2], the system named is human MDA-MB-436 breast cancer xenograft. The experiment in a line: MDA-MB-436 breast cancer xenograft model. It counts as in vivo, mice. Here is the method:
as §2

`O=C(c1cc(Cc2n[nH]c(=O)c3ccccc23)ccc1F)N1CCN(C(=O)C2CC2)CC1` [Compound B, Olaparib]: the IC50 in the series on MDA-MB-436 worked out at 6.5 µM; in the series with IGR-OV-1, 22 µM; in the series with NCI-H460, 28 µM; in the series with HT-144 it was 23 µM. Also, the anti-tumor efficacy result in series [1] (22Rv1 prostate cancer model, result in words) is on record as “no anti-tumor efficacy”; in series [2] (MDA-MB-436 human breast cancer model, result in words), “good anti-tumor efficacy”. In addition, the “Max. weight loss (%)” value is recorded as −3% in series [1] (body weight vs start of treatment, Compound A 20 mg/kg 2QD p.o. 3 on/4 off, Compound B 20 mg/kg QD i.p.) and −3% in series [2] (body weight vs start of treatment, Compound A 20 mg/kg 2QD p.o. 3 on/4 off, Compound B 50 mg/kg QD i.p.). In addition, the T/C is on record as 1.18 in series [1] (tumor area at study end, male Fox Chase SCID mice, Compound A 20 mg/kg 2QD p.o. 3 on/4 off, Compound B 20 mg/kg QD i.p.) and 0.29^* in series [2] (tumor area at study end, NOD/Scid mice, Compound A 20 mg/kg 2QD p.o. 3 on/4 off, Compound B 50 mg/kg QD i.p.).
